# Experiments:
# [1] = molecular target: T1, recombinant guanylate cyclase reporter cell line (Rattus norvegicus, UniProt P19686+P20595); assay: Effect on a recombinant guanylate cyclase reporter cell line; assay type: cell-based
# T1 construct: expressed in transfected cells; host or cells: recombinant reporter cell line
# T1 sequence (P19686 1-690): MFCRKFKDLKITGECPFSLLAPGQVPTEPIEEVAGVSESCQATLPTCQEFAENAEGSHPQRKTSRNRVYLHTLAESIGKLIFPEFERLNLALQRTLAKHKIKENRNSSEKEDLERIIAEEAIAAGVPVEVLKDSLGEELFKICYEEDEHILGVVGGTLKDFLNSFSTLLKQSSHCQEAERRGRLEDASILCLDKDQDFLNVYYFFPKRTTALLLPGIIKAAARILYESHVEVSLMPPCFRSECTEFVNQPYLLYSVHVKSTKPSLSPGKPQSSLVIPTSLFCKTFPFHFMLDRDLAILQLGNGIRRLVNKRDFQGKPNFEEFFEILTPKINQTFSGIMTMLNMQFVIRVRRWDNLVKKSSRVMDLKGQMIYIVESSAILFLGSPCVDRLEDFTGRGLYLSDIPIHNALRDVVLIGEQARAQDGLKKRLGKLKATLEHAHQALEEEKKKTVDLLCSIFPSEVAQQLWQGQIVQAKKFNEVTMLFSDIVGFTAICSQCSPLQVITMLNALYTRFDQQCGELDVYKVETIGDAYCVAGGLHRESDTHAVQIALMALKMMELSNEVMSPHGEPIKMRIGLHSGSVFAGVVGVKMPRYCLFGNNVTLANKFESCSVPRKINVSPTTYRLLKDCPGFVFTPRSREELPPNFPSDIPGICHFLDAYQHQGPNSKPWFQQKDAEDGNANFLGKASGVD
# T1 sequence (P20595 1-619): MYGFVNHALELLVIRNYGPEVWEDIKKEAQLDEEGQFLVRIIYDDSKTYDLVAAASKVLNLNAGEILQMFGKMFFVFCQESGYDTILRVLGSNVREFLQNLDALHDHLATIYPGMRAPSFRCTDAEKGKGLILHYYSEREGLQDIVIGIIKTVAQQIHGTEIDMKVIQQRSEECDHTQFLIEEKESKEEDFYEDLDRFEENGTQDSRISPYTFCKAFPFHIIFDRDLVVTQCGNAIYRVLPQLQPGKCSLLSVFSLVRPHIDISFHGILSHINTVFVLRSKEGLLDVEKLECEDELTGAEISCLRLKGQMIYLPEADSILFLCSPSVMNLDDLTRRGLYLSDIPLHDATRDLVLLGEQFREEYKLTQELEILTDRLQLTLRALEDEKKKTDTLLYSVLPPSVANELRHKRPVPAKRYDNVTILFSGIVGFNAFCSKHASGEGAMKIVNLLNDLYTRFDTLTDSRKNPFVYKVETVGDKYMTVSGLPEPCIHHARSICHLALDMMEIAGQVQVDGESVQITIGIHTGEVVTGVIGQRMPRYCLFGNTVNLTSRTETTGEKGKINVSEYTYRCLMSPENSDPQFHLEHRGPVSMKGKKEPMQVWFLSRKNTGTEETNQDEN
# Experimental: The cellular activity of the compounds according to the invention is determined using a recombinant guanylate cyclase reporter cell line, as described in F. Wunder et al., Anal. Biochem. 339, 104-112 (2005).
# rabbit aorta rings = assay: Vasorelaxant effect in vitro (phenylephrine-contracted aorta rings); conditions: Oryctolagus cuniculus, phenylephrine contraction, concentration reducing control contraction by 50%
# Experimental: Rabbits are stunned by a blow to the neck and exsanguinated. The aorta is removed, freed from adhering tissue and divided into rings of a width of 1.5 mm. The rings are placed individually under an initial tension in 5 ml organ baths with Krebs-Henseleit solution which is at 37° C., is gassed with carbogen and has the following composition (in each case mM): sodium chloride: 119; potassium chloride: 4.8; calcium chloride dihydrate: 1; magnesium sulphate heptahydrate: 1.4; potassium dihydrogenphosphate: 1.2; sodium bicarbonate: 25; glucose: 10. The contractile force is determined with Statham UC2 cells, amplified and digitalized using A/D transducers (DAS-1802 HC, Keithley Instruments Munich), and recorded in parallel on linear recorders. To produce a contraction, phenylephrine is added to the bath cumulatively in increasing concentration. After several control cycles, the substance to be investigated is added in each further run in increasing dosage in each case, and the height of the contraction achieved is compared with the height of the contraction reached in the last preceding run. This is used to calculate the concentration needed to reduce the magnitude of the control value by 50% (IC50 value). The standard administration volume is 5 μl; the DMSO content in the bath solution corresponds to 0.1%.
Compound,MEC (minimum effective concentration) [1],IC50 (rabbit aorta rings)
"CC1(C)C(=O)Nc2nc(-c3nn(Cc4ncccc4F)c4ncc(F)cc34)nc(O)c21 [Example 5, 2-{5-Fluoro-1-[(3-fluoropyridin-2-yl)methyl]-1H-pyrazolo[3,4-b]pyridin-3-yl}-4-hydroxy-5,5-dimethyl-5,7-dihydro-6H-pyrrolo[2,3-d]pyrimidin-6-one]",3 µM,627 nM
"CC1(C)C(=O)Nc2nc(-c3nn(Cc4ncccn4)c4ncc(F)cc34)nnc21 [Example 1, 3-[5-Fluoro-1-(pyrimidin-2-ylmethyl)-1H-pyrazolo[3,4-b]pyridin-3-yl]-7,7-dimethyl-5,7-dihydro-6H-pyrrolo[2,3-e][1,2,4]triazin-6-one]",10 µM,1320 nM
"CC1(C)C(=O)Nc2nc(-c3nn(Cc4ccncc4F)c4ncc(F)cc34)ncc21 [Example 14, 2-{5-Fluoro-1-[(3-fluoropyridin-4-yl)methyl]-1H-pyrazolo[3,4-b]pyridin-3-yl}-5,5-dimethyl-5,7-dihydro-6H-pyrrolo[2,3-d]pyrimidin-6-one]",1.0 µM,207 nM
"CC1(C)C(=O)Nc2nc(-c3nn(Cc4ncc(F)cc4F)c4ncc(F)cc34)nnc21 [Example 16, 3-{1-[(3,5-Difluoropyridin-2-yl)methyl]-5-fluoro-1H-pyrazolo[3,4-b]pyridin-3-yl}-7,7-dimethyl-5,7-dihydro-6H-pyrrolo[2,3-e][1,2,4]triazin-6-one]",1.0 µM,
"CC1(C)C(=O)Nc2nc(-c3nn(Cc4c(F)cncc4F)c4ncc(F)cc34)ncc21 [Example 10, 2-[1-[(3,5-Difluoropyridin-4-yl)methyl]-5-fluoro-1H-pyrazolo[3,4-b]pyridin-3-yl]-5,5-dimethyl-5,7-dihydro-6H-pyrrolo[2,3-d]pyrimidin-6-one]",1.0 µM,259 nM
"CC1(C)C(=O)Nc2nc(-c3nn(Cc4ccncc4F)c4ncc(F)cc34)nc(N)c21 [Example 12, 4-Amino-2-[5-fluoro-1-[(3-fluoropyridin-4-yl)methyl]-1H-pyrazolo[3,4-b]pyridin-3-yl]-5,5-dimethyl-5,7-dihydro-6H-pyrrolo[2,3-d]pyrimidin-6-one]",1.0 µM,121 nM
"CC1(C)C(=O)Nc2nc(-c3nn(Cc4ccncc4F)c4ncc(F)cc34)nnc21 [Example 15, 3-{5-Fluoro-1-[(3-fluoropyridin-4-yl)methyl]-1H-pyrazolo[3,4-b]pyridin-3-yl}-7,7-dimethyl-5,7-dihydro-6H-pyrrolo[2,3-e][1,2,4]triazin-6-one]",3.0 µM,2230 nM
"CC1(C)C(=O)Nc2nc(-c3nn(Cc4ncccc4F)c4ncc(F)cc34)nc(I)c21 [Example 4, 2-{5-Fluoro-1-[(3-fluoropyridin-2-yl)methyl]-1H-pyrazolo[3,4-b]pyridin-3-yl}-4-iodo-5,5-dimethyl-5,7-dihydro-6H-pyrrolo[2,3-d]pyrimidin-6-one]",0.3 µM,
"CC1(C)C(=O)Nc2nc(-c3nn(Cc4c(F)cncc4F)c4ncc(F)cc34)nnc21 [Example 11, 3-{1-[(3,5-Difluoropyridin-4-yl)methyl]-5-fluoro-1H-pyrazolo[3,4-b]pyridin-3-yl}-7,7-dimethyl-5,7-dihydro-6H-pyrrolo[2,3-e][1,2,4]triazin-6-one]",3.0 µM,2540 nM
"CC1(C)C(=O)Nc2nc(-c3nn(Cc4c(F)cncc4F)c4ncc(F)cc34)nc(N)c21 [Example 7, 4-Amino-2-{1-[(3,5-difluoropyridin-4-yl)methyl]-5-fluoro-1H-pyrazolo[3,4-b]pyridin-3-yl}-5,5-dimethyl-5,7-dihydro-6H-pyrrolo[2,3-d]pyrimidin-6-one]",0.3 µM,116 nM
"CC1(C)C(=O)Nc2nc(-c3nn(Cc4cncnc4)c4ncc(F)cc34)nc(N)c21 [Example 21, 4-Amino-2-[5-fluoro-1-(pyrimidin-5-ylmethyl)-1H-pyrazolo[3,4-b]pyridin-3-yl]-5,5-dimethyl-5,7-dihydro-6H-pyrrolo[2,3-d]pyrimidin-6-one]",0.1 µM,99 nM
"CC1(C)C(=O)Nc2nc(-c3nn(Cc4cncnc4)c4ncc(F)cc34)nnc21 [Example 19, 3-[5-Fluoro-1-(pyrimidin-5-ylmethyl)-1H-pyrazolo[3,4-b]pyridin-3-yl]-7,7-dimethyl-5,7-dihydro-6H-pyrrolo[2,3-e][1,2,4]triazin-6-one]",0.1 µM,361 nM
"CC1(C)C(=O)Nc2nc(-c3nn(Cc4cncnc4)c4ncc(F)cc34)ncc21 [Example 18, 2-[5-Fluoro-1-(pyrimidin-5-ylmethyl)-1H-pyrazolo[3,4-b]pyridin-3-yl]-5,5-dimethyl-5,7-dihydro-6H-pyrrolo[2,3-d]pyrimidin-6-one]",0.1 µM,196 nM
"CC1(C)C(=O)Nc2nc(-c3nn(Cc4c(F)cncc4F)c4ncc(F)cc34)nc(O)c21 [Example 9, 2-{1-[(3,5-Difluoropyridin-4-yl)methyl]-5-fluoro-1H-pyrazolo[3,4-b]pyridin-3-yl}-4-hydroxy-5,5-dimethyl-5,7-dihydro-6H-pyrrolo[2,3-d]pyrimidin-6-one]",3.0 µM,
"CC1(C)C(=O)Nc2nc(-c3nn(Cc4sccc4F)c4ncc(F)cc34)nnc21 [Example 20, 3-{5-Fluoro-1-[(3-fluoro-2-thienyl)methyl]-1H-pyrazolo[3,4-b]pyridin-3-yl}-7,7-dimethyl-5,7-dihydro-6H-pyrrolo[2,3-e][1,2,4]triazin-6-one]",0.01 µM,

# — patent publication US20140228366A1, “HETEROARYL-SUBSTITUTED PYRAZOLOPYRIDINES AND USE THEREOF AS SOLUBLE GUANYLATE CYCLASE STIMULATORS” (BAYER INTELLECTUAL PROPERTY GMBH, priority 2011, published 2014)
